Tests used:
CTLL [1] = conditions: mouse, 3.3 µM
Description: Drug uptake in mouse CTLL cells assessed as whole cell extract measured per 50000 cells at 3.3 uM in growth medium by LC-MS/MS analysis

in vitro = conditions: human, Caco-2
Jurkat [2] = conditions: human, 3.3 µM
Description: Drug uptake in human Jurkat cells assessed as whole cell extract measured per 50000 cells at 3.3 uM in growth medium by LC-MS/MS analysis

Jurkat [3] = assay: cells; conditions: Homo sapiens
Description: Inhibition of antiTCR/antiCD28-stimulated IL2 production in human Jurkat cells by measuring bioluminescence

Jurkat [4] = conditions: human, 10 µM
Description: Drug uptake in human Jurkat cells assessed as whole cell extract measured per 50000 cells at 10 uM in growth medium by LC-MS/MS analysis

CTLL [5] = conditions: mouse, 0.33 µM
Description: Drug uptake in mouse CTLL cells assessed as whole cell extract measured per 50000 cells at 0.33 uM in growth medium by LC-MS/MS analysis

CTLL [6] = conditions: mouse, 10 µM
Description: Drug uptake in mouse CTLL cells assessed as whole cell extract measured per 50000 cells at 10 uM in growth medium by LC-MS/MS analysis

[7] = biological target: Glycogen synthase kinase-3 beta (Homo sapiens, UniProt P49841); assay: Inhibition of GSK3-beta
Jurkat [8] = conditions: human, 0.33 µM
Description: Drug uptake in human Jurkat cells assessed as whole cell extract measured per 50000 cells at 0.33 uM in growth medium by LC-MS/MS analysis

CTLL [9] = conditions: mouse, 1 µM
Description: Drug uptake in mouse CTLL cells assessed as whole cell extract measured per 50000 cells at 1 uM in growth medium by LC-MS/MS analysis

[10] = biological target: Protein kinase C alpha type (Homo sapiens, UniProt P17252); assay: Inhibition of PKCalpha
Jurkat [11] = conditions: human, 1 µM
Description: Drug uptake in human Jurkat cells assessed as whole cell extract measured per 50000 cells at 1 uM in growth medium by LC-MS/MS analysis

[12] = biological target: Protein kinase C theta type (Homo sapiens, UniProt Q04759); assay: Inhibition of PKCtheta
Sequence of Protein kinase C theta type (Q04759 whole entry): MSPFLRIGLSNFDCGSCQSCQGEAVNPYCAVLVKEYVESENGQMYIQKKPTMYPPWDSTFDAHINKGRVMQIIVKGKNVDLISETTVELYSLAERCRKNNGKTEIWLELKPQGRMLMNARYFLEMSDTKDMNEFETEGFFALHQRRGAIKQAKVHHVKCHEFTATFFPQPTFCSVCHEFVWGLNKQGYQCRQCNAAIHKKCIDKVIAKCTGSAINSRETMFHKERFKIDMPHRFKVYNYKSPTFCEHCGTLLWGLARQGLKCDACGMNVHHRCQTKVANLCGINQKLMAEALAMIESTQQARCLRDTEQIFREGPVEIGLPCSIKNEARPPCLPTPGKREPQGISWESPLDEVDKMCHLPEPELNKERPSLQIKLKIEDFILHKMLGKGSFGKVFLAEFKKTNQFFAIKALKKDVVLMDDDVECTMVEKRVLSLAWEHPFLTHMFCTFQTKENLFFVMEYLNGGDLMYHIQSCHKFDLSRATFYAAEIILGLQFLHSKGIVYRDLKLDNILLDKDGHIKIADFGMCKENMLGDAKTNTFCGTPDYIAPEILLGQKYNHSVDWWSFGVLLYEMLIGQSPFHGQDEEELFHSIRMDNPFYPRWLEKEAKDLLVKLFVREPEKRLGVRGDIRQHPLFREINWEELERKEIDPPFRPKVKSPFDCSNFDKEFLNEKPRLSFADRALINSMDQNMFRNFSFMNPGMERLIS

[13] = biological target: T1, Tyrosine-protein kinase JAK3 (Mus musculus, UniProt Q62137)
T1 sequence (Q62137 whole entry): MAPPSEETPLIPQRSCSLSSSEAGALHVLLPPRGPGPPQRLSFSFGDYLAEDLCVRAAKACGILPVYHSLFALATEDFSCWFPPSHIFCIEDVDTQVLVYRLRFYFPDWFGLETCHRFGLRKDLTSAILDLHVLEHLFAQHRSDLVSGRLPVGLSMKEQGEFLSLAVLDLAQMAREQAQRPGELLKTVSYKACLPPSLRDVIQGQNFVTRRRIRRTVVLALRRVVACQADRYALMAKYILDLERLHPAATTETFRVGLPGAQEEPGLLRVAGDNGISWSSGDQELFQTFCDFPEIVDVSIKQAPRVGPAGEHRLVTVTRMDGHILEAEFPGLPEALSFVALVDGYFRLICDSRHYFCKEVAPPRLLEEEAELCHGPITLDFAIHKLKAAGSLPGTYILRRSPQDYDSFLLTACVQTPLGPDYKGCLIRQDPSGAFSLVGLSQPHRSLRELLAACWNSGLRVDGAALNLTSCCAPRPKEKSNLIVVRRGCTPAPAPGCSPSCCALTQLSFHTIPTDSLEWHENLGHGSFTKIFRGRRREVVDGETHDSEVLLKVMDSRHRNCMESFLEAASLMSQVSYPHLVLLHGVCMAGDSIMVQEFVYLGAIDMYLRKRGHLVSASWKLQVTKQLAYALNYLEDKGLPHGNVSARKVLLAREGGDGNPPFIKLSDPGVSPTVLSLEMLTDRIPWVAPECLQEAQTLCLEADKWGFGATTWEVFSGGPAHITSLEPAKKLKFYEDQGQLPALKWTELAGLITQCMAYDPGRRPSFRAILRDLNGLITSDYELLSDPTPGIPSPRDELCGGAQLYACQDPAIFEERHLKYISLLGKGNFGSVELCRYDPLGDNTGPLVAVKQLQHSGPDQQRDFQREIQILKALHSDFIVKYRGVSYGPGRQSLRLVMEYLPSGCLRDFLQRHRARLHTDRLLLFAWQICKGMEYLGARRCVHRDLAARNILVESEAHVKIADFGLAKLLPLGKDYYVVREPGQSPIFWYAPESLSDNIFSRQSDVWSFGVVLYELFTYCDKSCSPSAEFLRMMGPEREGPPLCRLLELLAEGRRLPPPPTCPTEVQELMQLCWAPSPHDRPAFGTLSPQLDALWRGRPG
Description: Inhibition of Jak3-mediated IL2-induced Stat5 phosphorylation in mouse CTLL cells by cell-based assay

[14] = biological target: Non-receptor tyrosine-protein kinase TYK2 (Homo sapiens, UniProt P29597)
Sequence of Non-receptor tyrosine-protein kinase TYK2 (P29597 whole entry): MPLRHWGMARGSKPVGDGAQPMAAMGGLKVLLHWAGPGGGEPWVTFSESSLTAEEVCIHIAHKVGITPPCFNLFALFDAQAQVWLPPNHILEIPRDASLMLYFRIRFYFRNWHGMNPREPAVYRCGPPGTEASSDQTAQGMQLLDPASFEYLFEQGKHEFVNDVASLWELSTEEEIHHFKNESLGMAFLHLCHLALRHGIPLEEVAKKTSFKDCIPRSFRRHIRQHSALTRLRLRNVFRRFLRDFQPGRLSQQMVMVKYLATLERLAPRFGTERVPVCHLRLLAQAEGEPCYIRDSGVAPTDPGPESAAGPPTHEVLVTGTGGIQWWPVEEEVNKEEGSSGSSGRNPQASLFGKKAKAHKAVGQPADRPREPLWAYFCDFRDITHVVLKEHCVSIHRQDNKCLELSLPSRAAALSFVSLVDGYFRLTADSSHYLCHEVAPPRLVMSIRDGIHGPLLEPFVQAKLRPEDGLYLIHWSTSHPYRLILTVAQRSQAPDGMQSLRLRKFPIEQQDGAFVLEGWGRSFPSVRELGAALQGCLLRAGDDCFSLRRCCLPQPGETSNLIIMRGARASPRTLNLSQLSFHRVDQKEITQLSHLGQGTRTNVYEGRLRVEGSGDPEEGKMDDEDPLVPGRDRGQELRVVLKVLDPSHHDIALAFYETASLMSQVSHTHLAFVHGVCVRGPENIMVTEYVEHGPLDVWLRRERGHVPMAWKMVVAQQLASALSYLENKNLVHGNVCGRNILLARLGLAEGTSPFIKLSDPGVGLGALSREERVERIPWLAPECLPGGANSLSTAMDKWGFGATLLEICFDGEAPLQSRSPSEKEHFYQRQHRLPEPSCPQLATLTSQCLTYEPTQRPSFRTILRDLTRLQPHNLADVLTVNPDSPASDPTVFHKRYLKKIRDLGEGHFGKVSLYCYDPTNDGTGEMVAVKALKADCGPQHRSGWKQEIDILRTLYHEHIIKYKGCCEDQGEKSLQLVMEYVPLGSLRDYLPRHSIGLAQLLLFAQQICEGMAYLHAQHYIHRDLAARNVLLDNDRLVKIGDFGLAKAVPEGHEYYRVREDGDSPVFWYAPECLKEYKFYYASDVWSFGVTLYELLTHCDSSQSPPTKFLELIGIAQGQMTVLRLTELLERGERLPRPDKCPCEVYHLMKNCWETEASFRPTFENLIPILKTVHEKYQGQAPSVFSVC

[15] = biological target: Tyrosine-protein kinase JAK2 (Homo sapiens, UniProt O60674)
Sequence of Tyrosine-protein kinase JAK2 (O60674 whole entry): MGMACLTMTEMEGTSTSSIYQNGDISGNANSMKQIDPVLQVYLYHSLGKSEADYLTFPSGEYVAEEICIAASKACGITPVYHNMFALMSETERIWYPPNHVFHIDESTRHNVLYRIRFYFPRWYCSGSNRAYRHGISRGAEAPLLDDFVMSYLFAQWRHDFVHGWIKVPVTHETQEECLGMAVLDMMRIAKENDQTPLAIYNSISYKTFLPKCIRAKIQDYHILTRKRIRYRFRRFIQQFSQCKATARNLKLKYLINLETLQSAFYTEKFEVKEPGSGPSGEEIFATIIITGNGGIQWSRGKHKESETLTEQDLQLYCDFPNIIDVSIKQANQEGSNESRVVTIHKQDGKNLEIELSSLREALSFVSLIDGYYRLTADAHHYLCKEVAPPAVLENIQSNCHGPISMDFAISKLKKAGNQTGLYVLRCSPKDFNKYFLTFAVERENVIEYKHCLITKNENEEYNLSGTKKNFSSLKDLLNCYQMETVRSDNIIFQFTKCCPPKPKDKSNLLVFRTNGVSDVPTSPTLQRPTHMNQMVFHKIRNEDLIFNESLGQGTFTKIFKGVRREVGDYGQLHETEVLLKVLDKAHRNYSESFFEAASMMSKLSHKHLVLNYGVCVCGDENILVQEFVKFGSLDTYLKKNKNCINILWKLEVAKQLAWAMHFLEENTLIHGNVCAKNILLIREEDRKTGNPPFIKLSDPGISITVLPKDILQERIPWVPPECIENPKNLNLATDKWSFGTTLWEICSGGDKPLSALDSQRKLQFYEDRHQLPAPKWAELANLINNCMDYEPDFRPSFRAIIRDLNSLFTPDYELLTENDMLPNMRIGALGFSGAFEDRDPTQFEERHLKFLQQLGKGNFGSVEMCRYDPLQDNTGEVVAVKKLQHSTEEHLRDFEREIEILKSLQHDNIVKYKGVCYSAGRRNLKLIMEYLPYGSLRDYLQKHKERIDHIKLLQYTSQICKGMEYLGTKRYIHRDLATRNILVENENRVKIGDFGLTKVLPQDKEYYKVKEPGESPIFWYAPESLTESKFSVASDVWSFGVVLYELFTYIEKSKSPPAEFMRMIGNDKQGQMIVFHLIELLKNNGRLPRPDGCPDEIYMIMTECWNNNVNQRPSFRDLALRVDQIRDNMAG

[16] = biological target: Tyrosine-protein kinase JAK1 (Homo sapiens, UniProt P23458)
Sequence of Tyrosine-protein kinase JAK1 (P23458 whole entry): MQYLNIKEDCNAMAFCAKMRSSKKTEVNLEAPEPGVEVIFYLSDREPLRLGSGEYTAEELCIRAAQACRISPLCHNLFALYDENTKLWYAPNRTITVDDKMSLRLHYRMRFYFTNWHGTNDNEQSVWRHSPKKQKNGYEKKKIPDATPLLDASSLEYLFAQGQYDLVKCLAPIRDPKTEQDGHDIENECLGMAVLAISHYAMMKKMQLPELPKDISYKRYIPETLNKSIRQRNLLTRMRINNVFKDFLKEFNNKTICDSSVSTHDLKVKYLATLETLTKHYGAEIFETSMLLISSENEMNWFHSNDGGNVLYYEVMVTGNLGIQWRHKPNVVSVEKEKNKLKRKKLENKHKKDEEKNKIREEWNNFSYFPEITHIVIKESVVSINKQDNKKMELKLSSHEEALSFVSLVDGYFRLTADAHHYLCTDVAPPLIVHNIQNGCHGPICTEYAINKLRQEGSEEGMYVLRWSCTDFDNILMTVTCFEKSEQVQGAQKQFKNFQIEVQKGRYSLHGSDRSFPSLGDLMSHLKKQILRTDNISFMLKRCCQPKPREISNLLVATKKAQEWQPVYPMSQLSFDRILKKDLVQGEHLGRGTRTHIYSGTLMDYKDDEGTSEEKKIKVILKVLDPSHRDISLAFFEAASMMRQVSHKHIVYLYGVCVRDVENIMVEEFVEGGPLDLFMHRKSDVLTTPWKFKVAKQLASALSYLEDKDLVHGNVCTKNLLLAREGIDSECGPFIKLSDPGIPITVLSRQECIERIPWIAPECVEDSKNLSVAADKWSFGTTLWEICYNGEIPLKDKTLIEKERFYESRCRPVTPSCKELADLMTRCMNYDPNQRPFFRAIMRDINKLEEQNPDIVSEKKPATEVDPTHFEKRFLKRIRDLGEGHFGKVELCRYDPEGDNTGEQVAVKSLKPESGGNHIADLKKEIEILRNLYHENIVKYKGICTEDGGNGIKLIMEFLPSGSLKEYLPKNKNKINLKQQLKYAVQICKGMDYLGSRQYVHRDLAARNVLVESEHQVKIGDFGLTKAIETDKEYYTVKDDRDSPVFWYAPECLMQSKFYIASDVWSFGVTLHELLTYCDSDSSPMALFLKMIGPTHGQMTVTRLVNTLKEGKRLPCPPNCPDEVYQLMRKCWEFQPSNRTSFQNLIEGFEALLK

[17] = biological target: T2, Tyrosine-protein kinase JAK3 (Homo sapiens, UniProt P52333); type: cell-based
T2 sequence (P52333 whole entry): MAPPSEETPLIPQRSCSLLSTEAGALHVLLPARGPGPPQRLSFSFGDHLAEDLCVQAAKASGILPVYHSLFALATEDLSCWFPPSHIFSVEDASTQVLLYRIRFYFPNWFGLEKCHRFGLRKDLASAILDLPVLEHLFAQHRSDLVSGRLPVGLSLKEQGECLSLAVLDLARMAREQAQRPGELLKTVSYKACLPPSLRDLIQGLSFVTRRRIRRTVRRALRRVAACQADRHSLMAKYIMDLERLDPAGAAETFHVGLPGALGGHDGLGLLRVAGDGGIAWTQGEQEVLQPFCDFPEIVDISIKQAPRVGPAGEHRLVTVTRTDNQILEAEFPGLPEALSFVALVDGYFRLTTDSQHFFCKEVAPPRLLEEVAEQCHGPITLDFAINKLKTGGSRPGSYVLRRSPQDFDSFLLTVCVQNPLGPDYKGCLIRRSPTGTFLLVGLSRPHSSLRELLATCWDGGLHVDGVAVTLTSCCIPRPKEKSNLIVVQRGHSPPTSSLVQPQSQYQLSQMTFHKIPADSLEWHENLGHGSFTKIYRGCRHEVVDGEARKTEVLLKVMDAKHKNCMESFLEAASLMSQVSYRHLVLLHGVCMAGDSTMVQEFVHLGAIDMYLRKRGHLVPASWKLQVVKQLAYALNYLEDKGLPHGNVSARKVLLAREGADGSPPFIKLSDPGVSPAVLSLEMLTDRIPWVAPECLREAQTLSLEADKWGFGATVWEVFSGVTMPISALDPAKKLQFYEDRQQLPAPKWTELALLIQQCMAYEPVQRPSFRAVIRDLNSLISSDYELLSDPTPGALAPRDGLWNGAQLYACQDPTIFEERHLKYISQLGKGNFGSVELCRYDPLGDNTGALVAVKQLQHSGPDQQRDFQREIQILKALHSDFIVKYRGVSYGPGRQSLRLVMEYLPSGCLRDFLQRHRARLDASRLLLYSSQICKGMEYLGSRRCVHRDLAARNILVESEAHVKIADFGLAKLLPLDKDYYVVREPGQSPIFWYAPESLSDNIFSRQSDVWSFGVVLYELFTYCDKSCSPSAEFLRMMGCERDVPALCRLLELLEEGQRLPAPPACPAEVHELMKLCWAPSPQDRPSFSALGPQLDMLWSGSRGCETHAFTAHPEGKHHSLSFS

Sequence of Glycogen synthase kinase-3 beta (P49841 whole entry): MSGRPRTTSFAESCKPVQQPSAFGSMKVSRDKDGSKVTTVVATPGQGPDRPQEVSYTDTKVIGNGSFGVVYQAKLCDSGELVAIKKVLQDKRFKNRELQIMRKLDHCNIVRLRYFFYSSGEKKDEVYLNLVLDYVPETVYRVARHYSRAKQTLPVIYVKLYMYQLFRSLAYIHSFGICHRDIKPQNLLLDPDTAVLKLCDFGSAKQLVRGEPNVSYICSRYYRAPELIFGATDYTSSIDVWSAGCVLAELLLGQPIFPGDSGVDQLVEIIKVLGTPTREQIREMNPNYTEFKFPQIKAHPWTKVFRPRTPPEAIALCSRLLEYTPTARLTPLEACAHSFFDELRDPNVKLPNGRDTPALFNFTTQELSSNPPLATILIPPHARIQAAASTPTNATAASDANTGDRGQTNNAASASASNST

SMILES | IC50 [14] | IC50 [15] | IC50 [16] | IC50 [17] | further results
CC(C)(O)C(=O)N1CCN(c2ccc(C(F)(F)F)c(C3=C(c4c[nH]c5ccccc45)C(=O)NC3=O)c2)CC1 |  |  |  |  | Drug uptake (CTLL [1]): 31.27 pmol; Papp A→B (in vitro): 3 ×10⁻⁶ cm/s; Drug uptake (Jurkat [2]): 23.48 pmol; IC50 (Jurkat [3]): 689 nM; Drug uptake (Jurkat [4]): 55.58 pmol; Drug uptake (CTLL [5]): 3.12 pmol; Drug uptake (CTLL [6]): 64.33 pmol; IC50 [7]: 3 nM; Drug uptake (Jurkat [8]): 2.4 pmol; Drug uptake (CTLL [9]): 10.97 pmol; IC50 [10]: 13 nM; Drug uptake (Jurkat [11]): 7.88 pmol; IC50 [12]: 68 nM; IC50 [13]: 1290 nM
O=C1NC(=O)C(c2c[nH]c3ccccc23)=C1c1cc(F)ccc1C(F)(F)F | > 10000 nM | > 10000 nM | > 10000 nM | > 10000 nM | 
CN(C)c1ccc(C(F)(F)F)c(C2=C(c3c[nH]c4ccccc34)C(=O)NC2=O)c1 | > 10000 nM | 9150 nM | 4700 nM | 423 nM | 
O=CN1CCN(c2ccc(C(F)(F)F)c(C3=C(c4c[nH]c5ccccc45)C(=O)NC3=O)c2)CC1 | 5040 nM | 1440 nM | 754 nM | 36 nM | 

More lines, main results first:

IC50 [14] | IC50 [15] | IC50 [16] | IC50 [17] | SMILES | further results
4330 nM | 330 nM | 253 nM |  | O=C1CCN(c2ncc(C(F)(F)F)c(C3=C(c4c[nH]c5ccccc45)C(=O)NC3=O)n2)CC1 | 
> 10000 nM | 4700 nM | 737 nM | 133 nM | O=C1NC(=O)C(c2c[nH]c3ccccc23)=C1c1cc(N2CCNCC2)ccc1C(F)(F)F | 
> 10000 nM | > 10000 nM | 6500 nM | 460 nM | O=C1NC(=O)C(c2c[nH]c3ccccc23)=C1c1cc(N2CCOCC2)ccc1C(F)(F)F | 
